Reference: US9604935B2, “Deuterated phenyl amino pyrimidine compound and pharmaceutical composition containing the same” (Suzhou Zelgen Biopharmaceuticals Co., Ltd., priority 2013, dated 2017)
Like-named read-outs stand apart in the source and are kept apart here. Values belong to the molecule of their own block, whether it stands above or below them.

Test: Pharmacokinetic evaluation in rats
Format: in vivo
Conditions: male, Sprague-Dawley, rat, plasma, po, 3 mg/kg, 3 mg/kg by gavage
Protocol: 12 male Sprague-Dawley rats, 7-8 weeks old, of approximately 200 g body weight, were divided into three groups, four in each group.
Rats were feed with standard feed, and were given water, and were started to fast 16 hours before the test. The drug was dissolved in PEG400 and dimethylsulfoxide. Orbital blood collection was conducted, and the blood collection time is 0.25 hour, 0.5 hour, 1 hour, 2 hour, 4 hour, 6 hour, 8 hour, 12 hour, 24 hour, 36 hour and 48 hour after administration.
After inhalation of ether, the rats were shortly anesthesiaed; 300 μL of blood were collected from orbit into a test tube. There were 30 μL of 1% heparin saline solutions in the test tube. Before use, test tubes were dried overnight at 60° C. After the blood sample was collected in the subsequent time point, rats were anesthetized with ether and sacrificed.
After blood sampling, the tube was gently inverted at least 5 times immediately to ensure adequate mixing, and was placed on ice. Blood samples were 5000 rpm centrifuged at 4° C. for 5 minutes to separate the plasma and red blood cells. 100 μL of plasma was pipetted into a clean plastic centrifuge tube, and the name of compounds and the time point were indicated. Plasma was stored in −80° C. before use for the analysis. The concentration of the compound of the invention in plasma was determined with LC-MS/MS. The pharmacokinetic parameters were calculated based on the blood drug concentration of each animal at different time points.

[1] = group G3, Mean of 4 rats, read-out: AUCINF_obs
[2] = group G3, rat 9, read-out: AUCINF_obs
[3] = group G3, rat 10, read-out: AUCINF_obs
[4] = group G3, rat 11, read-out: AUCINF_obs
[5] = group G3, rat 12, read-out: AUCINF_obs
[6] = group G2, Mean of 4 rats, read-out: AUCINF_obs
[7] = group G2, rat 5, read-out: AUCINF_obs
[8] = group G2, rat 6, read-out: AUCINF_obs
[9] = group G2, rat 7, read-out: AUCINF_obs
[10] = group G2, rat 8, read-out: AUCINF_obs
[11] = group G1, Mean of 4 rats, read-out: AUCINF_obs
[12] = group G1, rat 1, read-out: AUCINF_obs
[13] = group G1, rat 2, read-out: AUCINF_obs
[14] = group G1, rat 3, read-out: AUCINF_obs
[15] = group G1, rat 4, read-out: AUCINF_obs

Structure (SMILES): [2H]C1([2H])OC([2H])([2H])C([2H])([2H])N(c2ccc(Nc3nccc(-c4ccc(C(=O)NCC#N)cc4)n3)cc2)C1([2H])[2H] [example 1, N-(cyanomethyl)-4-(2-(4-(d8-morpholino)phenylamino)pyrimidine-4-yl)benzamide]
AUC(0-t) (group G3 (Table 3), mean±SD): 3960 ± 1480 ng·h/mL
Cmax (group G3 (Table 3), mean±SD): 653 ± 275 ng/mL
AUC(0-t) (group G3, Mean of 4 rats): 3960 ng·h/mL
Cmax (group G3, Mean of 4 rats): 653 ng/mL
Tmax (group G3, Mean of 4 rats): 3.5 h
AUC(0-inf) [1]: 4060 ng·h/mL
AUC(0-t) (group G3, rat 9): 6170 ng·h/mL
Cmax (group G3, rat 9): 1060 ng/mL
Tmax (group G3, rat 9): 4 h
AUC(0-inf) [2]: 6300 ng·h/mL
AUC(0-t) (group G3, rat 10): 3250 ng·h/mL
Cmax (group G3, rat 10): 596 ng/mL
Tmax (group G3, rat 10): 4 h
AUC(0-inf) [3]: 3370 ng·h/mL
AUC(0-t) (group G3, rat 11): 3160 ng·h/mL
Cmax (group G3, rat 11): 476 ng/mL
Tmax (group G3, rat 11): 2 h
AUC(0-inf) [4]: 3250 ng·h/mL
AUC(0-t) (group G3, rat 12): 3240 ng·h/mL
Cmax (group G3, rat 12): 483 ng/mL
Tmax (group G3, rat 12): 4 h
AUC(0-inf) [5]: 3320 ng·h/mL

Structure (SMILES): [2H]C1([2H])COCC([2H])([2H])N1c1ccc(Nc2nccc(-c3ccc(C(=O)NCC#N)cc3)n2)cc1 [example 5, N-(cyanomethyl)-4-(2-(4-(2′,2′,6′,6′-d4-morpholino)phenylamino)pyrimidin-4-yl)benzamide]
AUC(0-t) (group G2 (Table 2), mean±SD): 5390 ± 1230 ng·h/mL
Cmax (group G2 (Table 2), mean±SD): 972 ± 307 ng/mL
AUC(0-t) (group G2, Mean of 4 rats): 5390 ng·h/mL
Cmax (group G2, Mean of 4 rats): 972 ng/mL
Tmax (group G2, Mean of 4 rats): 3.5 h
AUC(0-inf) [6]: 5440 ng·h/mL
AUC(0-t) (group G2, rat 5): 6820 ng·h/mL
Cmax (group G2, rat 5): 1410 ng/mL
Tmax (group G2, rat 5): 2 h
AUC(0-inf) [7]: 6850 ng·h/mL
AUC(0-t) (group G2, rat 6): 5460 ng·h/mL
Cmax (group G2, rat 6): 922 ng/mL
Tmax (group G2, rat 6): 4 h
AUC(0-inf) [8]: 5490 ng·h/mL
AUC(0-t) (group G2, rat 7): 5470 ng·h/mL
Cmax (group G2, rat 7): 875 ng/mL
Tmax (group G2, rat 7): 4 h
AUC(0-inf) [9]: 5520 ng·h/mL
AUC(0-t) (group G2, rat 8): 3810 ng·h/mL
Cmax (group G2, rat 8): 686 ng/mL
Tmax (group G2, rat 8): 4 h
AUC(0-inf) [10]: 3900 ng·h/mL

Structure (SMILES): [2H]C([2H])(C#N)NC(=O)c1ccc(-c2ccnc(Nc3ccc(N4CCOCC4)cc3)n2)cc1 [example 8, N-(cyano(d2-methyl))-4-(2-(4-morpholinophenylamino)pyrimidin-4-yl)benzamide]
AUC(0-t) (group G1 (Table 1), mean±SD): 2090 ± 1220 ng·h/mL
Cmax (group G1 (Table 1), mean±SD): 309 ± 175 ng/mL
AUC(0-t) (group G1, Mean of 4 rats): 2090 ng·h/mL
Cmax (group G1, Mean of 4 rats): 309 ng/mL
Tmax (group G1, Mean of 4 rats): 2.56 h
AUC(0-inf) [11]: 2120 ng·h/mL
AUC(0-t) (group G1, rat 1): 3090 ng·h/mL
Cmax (group G1, rat 1): 469 ng/mL
Tmax (group G1, rat 1): 0.25 h
AUC(0-inf) [12]: 3100 ng·h/mL
AUC(0-t) (group G1, rat 2): 574 ng·h/mL
Cmax (group G1, rat 2): 101 ng/mL
Tmax (group G1, rat 2): 4 h
AUC(0-inf) [13]: 616 ng·h/mL
AUC(0-t) (group G1, rat 3): 3050 ng·h/mL
Cmax (group G1, rat 3): 438 ng/mL
Tmax (group G1, rat 3): 4 h
AUC(0-inf) [14]: 3130 ng·h/mL
AUC(0-t) (group G1, rat 4): 1630 ng·h/mL
Cmax (group G1, rat 4): 227 ng/mL
Tmax (group G1, rat 4): 2 h
AUC(0-inf) [15]: 1640 ng·h/mL

Structure (SMILES): N#CCNC(=O)c1ccc(-c2ccnc(Nc3ccc(N4CCOCC4)cc3)n2)cc1 [example 9, N-(cyanomethyl)-4-(2-(4-morpholinophenylamino)pyrimidin-4-yl)benzamide, reference compound]
AUC(0-t) (group G1 (Table 1), mean±SD): 1620 ± 932 ng·h/mL
Cmax (group G1 (Table 1), mean±SD): 245 ± 140 ng/mL
AUC(0-t) (group G1, Mean of 4 rats): 1620 ng·h/mL
Cmax (group G1, Mean of 4 rats): 245 ng/mL
Tmax (group G1, Mean of 4 rats): 2.56 h
AUC(0-inf) [11]: 1650 ng·h/mL
AUC(0-t) (group G1, rat 1): 2290 ng·h/mL
Cmax (group G1, rat 1): 368 ng/mL
Tmax (group G1, rat 1): 0.25 h
AUC(0-inf) [12]: 2300 ng·h/mL
AUC(0-t) (group G1, rat 2): 443 ng·h/mL
Cmax (group G1, rat 2): 79.4 ng/mL
Tmax (group G1, rat 2): 4 h
AUC(0-inf) [13]: 480 ng·h/mL
AUC(0-t) (group G1, rat 3): 2440 ng·h/mL
Cmax (group G1, rat 3): 354 ng/mL
Tmax (group G1, rat 3): 4 h
AUC(0-inf) [14]: 2510 ng·h/mL
AUC(0-t) (group G1, rat 4): 1320 ng·h/mL
Cmax (group G1, rat 4): 180 ng/mL
Tmax (group G1, rat 4): 2 h
AUC(0-inf) [15]: 1330 ng·h/mL
AUC(0-t) (group G2 (Table 2), mean±SD): 3210 ± 744 ng·h/mL
Cmax (group G2 (Table 2), mean±SD): 589 ± 190 ng/mL
AUC(0-t) (group G2, Mean of 4 rats): 3210 ng·h/mL
Cmax (group G2, Mean of 4 rats): 589 ng/mL
Tmax (group G2, Mean of 4 rats): 3.5 h
AUC(0-inf) [6]: 3240 ng·h/mL
AUC(0-t) (group G2, rat 5): 4080 ng·h/mL
Cmax (group G2, rat 5): 858 ng/mL
Tmax (group G2, rat 5): 2 h
AUC(0-inf) [7]: 4110 ng·h/mL
AUC(0-t) (group G2, rat 6): 3320 ng·h/mL
Cmax (group G2, rat 6): 567 ng/mL
Tmax (group G2, rat 6): 4 h
AUC(0-inf) [8]: 3340 ng·h/mL
AUC(0-t) (group G2, rat 7): 3180 ng·h/mL
Cmax (group G2, rat 7): 514 ng/mL
Tmax (group G2, rat 7): 4 h
AUC(0-inf) [9]: 3210 ng·h/mL
AUC(0-t) (group G2, rat 8): 2270 ng·h/mL
Cmax (group G2, rat 8): 415 ng/mL
Tmax (group G2, rat 8): 4 h
AUC(0-inf) [10]: 2300 ng·h/mL
AUC(0-t) (group G3 (Table 3), mean±SD): 2190 ± 814 ng·h/mL
Cmax (group G3 (Table 3), mean±SD): 365 ± 146 ng/mL
AUC(0-t) (group G3, Mean of 4 rats): 2190 ng·h/mL
Cmax (group G3, Mean of 4 rats): 365 ng/mL
Tmax (group G3, Mean of 4 rats): 3.5 h
AUC(0-inf) [1]: 2240 ng·h/mL
AUC(0-t) (group G3, rat 9): 3420 ng·h/mL
Cmax (group G3, rat 9): 579 ng/mL
Tmax (group G3, rat 9): 4 h
AUC(0-inf) [2]: 3480 ng·h/mL
AUC(0-t) (group G3, rat 10): 1800 ng·h/mL
Cmax (group G3, rat 10): 336 ng/mL
Tmax (group G3, rat 10): 4 h
AUC(0-inf) [3]: 1850 ng·h/mL
AUC(0-t) (group G3, rat 11): 1750 ng·h/mL
Cmax (group G3, rat 11): 276 ng/mL
Tmax (group G3, rat 11): 2 h
AUC(0-inf) [4]: 1800 ng·h/mL
AUC(0-t) (group G3, rat 12): 1810 ng·h/mL
Cmax (group G3, rat 12): 270 ng/mL
Tmax (group G3, rat 12): 4 h
AUC(0-inf) [5]: 1840 ng·h/mL

Results, then the molecule that gave them:

AUC(0-t) (group G3 (Table 3), mean±SD): 2720 ± 922 ng·h/mL
Cmax (group G3 (Table 3), mean±SD): 447 ± 170 ng/mL
AUC(0-t) (group G3, Mean of 4 rats): 2720 ng·h/mL
Cmax (group G3, Mean of 4 rats): 447 ng/mL
Tmax (group G3, Mean of 4 rats): 3.5 h
AUC(0-inf) [1]: 2790 ng·h/mL
AUC(0-t) (group G3, rat 9): 4100 ng·h/mL
Cmax (group G3, rat 9): 694 ng/mL
Tmax (group G3, rat 9): 4 h
AUC(0-inf) [2]: 4180 ng·h/mL
AUC(0-t) (group G3, rat 10): 2300 ng·h/mL
Cmax (group G3, rat 10): 419 ng/mL
Tmax (group G3, rat 10): 4 h
AUC(0-inf) [3]: 2350 ng·h/mL
AUC(0-t) (group G3, rat 11): 2190 ng·h/mL
Cmax (group G3, rat 11): 329 ng/mL
Tmax (group G3, rat 11): 2 h
AUC(0-inf) [4]: 2260 ng·h/mL
AUC(0-t) (group G3, rat 12): 2290 ng·h/mL
Cmax (group G3, rat 12): 344 ng/mL
Tmax (group G3, rat 12): 4 h
AUC(0-inf) [5]: 2350 ng·h/mL
Structure (SMILES): [2H]C([2H])(C#N)NC(=O)c1ccc(-c2ccnc(Nc3ccc(N4C([2H])([2H])C([2H])([2H])OC([2H])([2H])C4([2H])[2H])cc3)n2)cc1 [example 3, N-(cyano(d2-methyl))-4-(2-(4-(d8-morpholino)phenylamino)pyrimidin-4-yl)benzamide]

AUC(0-t) (group G1 (Table 1), mean±SD): 1900 ± 1100 ng·h/mL
Cmax (group G1 (Table 1), mean±SD): 282 ± 158 ng/mL
AUC(0-t) (group G1, Mean of 4 rats): 1900 ng·h/mL
Cmax (group G1, Mean of 4 rats): 282 ng/mL
Tmax (group G1, Mean of 4 rats): 2.56 h
AUC(0-inf) [11]: 1940 ng·h/mL
AUC(0-t) (group G1, rat 1): 2730 ng·h/mL
Cmax (group G1, rat 1): 423 ng/mL
Tmax (group G1, rat 1): 0.25 h
AUC(0-inf) [12]: 2740 ng·h/mL
AUC(0-t) (group G1, rat 2): 514 ng·h/mL
Cmax (group G1, rat 2): 94.6 ng/mL
Tmax (group G1, rat 2): 4 h
AUC(0-inf) [13]: 561 ng·h/mL
AUC(0-t) (group G1, rat 3): 2840 ng·h/mL
Cmax (group G1, rat 3): 403 ng/mL
Tmax (group G1, rat 3): 4 h
AUC(0-inf) [14]: 2920 ng·h/mL
AUC(0-t) (group G1, rat 4): 1520 ng·h/mL
Cmax (group G1, rat 4): 207 ng/mL
Tmax (group G1, rat 4): 2 h
AUC(0-inf) [15]: 1530 ng·h/mL
Structure (SMILES): [2H]C([2H])(C#N)NC(=O)c1ccc(-c2ccnc(Nc3ccc(N4CC([2H])([2H])OC([2H])([2H])C4)cc3)n2)cc1 [example 6]
